Measured values: article PMC5573760 (Cancer Chemotherapy and Pharmacology, 2017)

Tests used:
[1] = system: clinical target (PI3K); set-up: method as in Bayer AG, data on file; conditions: ref Bayer AG, data on file; cited from earlier work
[2] = Mass balance: excretion of radioactivity, copanlisib and metabolites in urine and feces; format: in vivo, human; conditions: 6 subjects; for Amount excreted in feces as this component, arithmetic mean (range) / Amount excreted in urine as this component, arithmetic mean (range): HPLC with off-line radioactivity detection; for Amount of dose recovered as this component in urine and feces combined: urine plus feces
Experimental: After pooling and homogenization of urine and feces samples per time interval, aliquots were stored at −20 °C for total radioactivity determination and at −70°C for metabolic profiling (including blood/plasma samples). For determination of total radioactivity, samples were analyzed with a Perkin Elmer Tri-Carb™ 3100 TR liquid scintillation analyzer (Perkin Elmer, Waltham, MA, USA) with quenching correction. For metabolite profiling, plasma samples were treated with a mixture of acetonitrile (ACN) +0.2% acetic acid, after shaking and centrifugation, the supernatant was concentrated. Urine and feces samples were treated with solid-phase extraction (Waters HLB 30 mg, 1 mL, Waters, Milford, MA, USA) and liquid–liquid extraction (ACN + 0.2% trifluoroacetic acid/water, 80:20 volume/volume), respectively. Subsequently samples from plasma, urine and feces were analyzed by HPLC-LSC on Synergi Polar 4 µm 150 × 2 mm (Phenomenex, Aschaffenburg, Germany) with off-line radioactivity detection by Microbeta^2™ Plus liquid scintillation counter with Ultima Flo™ AP scintillation fluid (Packard Instrument BV, Groningen, The Netherlands).
Metabolite patterns in plasma, urine and feces were studied by the HPLC method with off-line radioactivity detection described above.
A similar approach has been described earlier.

[3] = clinical; conditions: for Tmax: male, human, in vivo, iv, t max
Experimental: All subjects gave written informed consent; the study was conducted at PRA Health Sciences (Zuidlaren, The Netherlands) in accordance with the Declaration of Helsinki and was approved by an accredited institutional ethics committee (Medisch Ethische Toetsings Commissie, Assen, The Netherlands).
Subjects remained fasting until 2-h after the end of the infusion. Volunteers stayed in-house until 14 days after the application and subsequently urine and feces were collected for 24-h on Day 16, 20, 27 and 34 if necessary, cf. below.
Urine was collected pre-dose, at 0–12-h and 12–24 h after the start of the infusion and thereafter over 24-h intervals on Day 2 to Day 14 as well as on Day 16, 20, 27 and 34 (±1 day). Cumulative 24-h fecal samples were collected from Day 1 (day of infusion) to Day 14 and as well as on Day 16, 20, 27 and 34 (±1 day). […] The excreted radioactivity between ambulant visits during the prolongation phase of the clinical study was calculated using interpolation to get a more realistic total excretion value of all subjects (see "Pharmacokinetic analysis").
All samples were frozen at −70 °C and analyzed within 60 days of sample collection.
For blood/plasma ratio determination, total radioactivity in urine and feces well as data from HPLC analysis data from radioactivity measurement by liquid scintillation counting (LSC) were considered. The amount of radioactivity recovered in the excreta (A E) was related to the administered radioactive dose to establish the radioactive balance. Arithmetic means and coefficients of variation (CV) were calculated for these percentages. […] Cumulative excretion was calculated as sum of the collection intervals. The elimination of the total radioactivity in urine and feces for time-points beyond day 14 was performed by log-linear extrapolation between analyzed time-points. Amounts of radioactivity excreted in urine and feces between two ambulant visits were calculated per interpolated day by linear interpolation of log-transformed excretion data separately per matrix (lnA E(interpolated day) = Δdays × [lnA E(Visit i + 1) − lnA E(Visit i)]/[day (Visit i + 1) − day (Visit i)] + lnA E(Visit i), with A E given as amount of radioactivity excreted in matrix per day and Δdays being the difference between the calculated day and the last available visit with A E > 0). In case no feces sample was provided on an ambulant visit, this visit was neglected for interpolation. A similar approach has been described earlier. The concentration/amount for each component of each sample/time-point was calculated by multiplying the total radioactivity concentration/amount of each sample with %-area of each component obtained after off-line HPLC separation. The amount of radioactivity in urine and feces at late time-points where no component was detected was distributed in the same percentage to the component (s) present at the time-point before.
Compartment-free analysis was performed employing WinNonlin software (version 5.3, Pharsight Certara, Princton, NJ, USA).
Pharmacokinetic parameters were evaluated by descriptive data analysis without formal hypothesis testing by calculating either medians (t max, t last) or geometric means and %CV (remaining parameters). Excretion data (urine, feces, total) were evaluated by arithmetic means.

| SMILES | Amount excreted in feces as this component, arithmetic mean (range) [2] | Amount of dose recovered as this component in urine and feces combined [2] | Amount excreted in urine as this component, arithmetic mean (range) [2] | Affinity to the clinical target relative to parent compound [1] | Tmax ([3]; median) [h] | Tmax ([3]; range) [h] | Range of AUC (0–t last) (LC–MS) ([3]; plasma, t last defined by the time-point with detectable radioactivity, range of 6 subjects) |
| --- | --- | --- | --- | --- | --- | --- | --- |
| COc1c(OCCCN2CCOCC2=O)ccc2c1N=C(NC(=O)c1cnc(N)nc1)N1CCN=C21 [M1] | 6.39 (4.34–8.66) % of dose | 11.1 % of dose | 4.47 (2.53–6.79) % of dose | same order of magnitude as found for the parent compound | 6 | 3 to 10 | 4.36–37.8 ng-Eq·h/mL |
| COc1c(OCCCNCCO)ccc2c1N=C(NC(=O)c1cnc(N)nc1)N1CCN=C21 [M3] | 7.32 (5.61–11.6) % of dose | – | 0.32 (0–0.62) % of dose | – | – | – | – |
| COc1c(O)ccc2c1N=C(NC(=O)c1cnc(N)nc1)N1CCN=C21 [M4] | 5.61 (1.74–9.53) % of dose | – | 0.15 (0.04–0.32) % of dose | – | – | – | – |
| COc1c(OCCCN(C=O)CCO)ccc2c1N=C(NC(=O)c1cnc(N)nc1)N1CCN=C21 [M21] | – | < 2 % of dose | – | – | – | – | – |

Further lines, with some results ahead:

| Amount excreted in feces as this component, arithmetic mean (range) [2] | Amount of dose recovered as this component in urine and feces combined [2] | Amount excreted in urine as this component, arithmetic mean (range) [2] | SMILES | Affinity to the clinical target relative to parent compound [1] | Tmax ([3]; median) [h] | Tmax ([3]; range) [h] | Range of AUC (0–t last) (LC–MS) ([3]; plasma, t last defined by the time-point with detectable radioactivity, range of 6 subjects) |
| --- | --- | --- | --- | --- | --- | --- | --- |
| 11.8 (9.91–13.0) % of dose | – | 0.34 (0.10–0.52) % of dose | COc1c(OCCC(=O)O)ccc2c1N=C(NC(=O)c1cnc(N)nc1)N1CCN=C21 [M2] | – | – | – | – |
| – | < 2 % of dose | – | COc1c(OCCCO)ccc2c1N=C(NC(=O)c1cnc(N)nc1)N1CCN=C21 [M15] | – | – | – | – |
